Assay results from paper PMC5004205, “Spiro[pyrrolidine-3, 3´-oxindole] as potent anti-breast cancer compounds: Their design, synthesis, biological evaluation and cellular target identification” (Scientific Reports, 2016).

Tests used:
[1] = test system: MCF-7 breast cancer cells; assay: MTT colorimetric cell viability assay, MCF-7; format: cell-based; conditions: for CTRL-TST/CTRL*100 (inhibition) MCF-7: EC50 plate
Experimental: MCF-7 cells were maintained as monolayer in 25 cm^2 culture flasks (T-25) at 37 °C in DMEM medium (GIBCO, St. Louis, USA) supplemented with high glucose, L-glutamine, pyridoxine hydrochloride, 110 mg/L sodium pyruvate, 3.7 g/L NaHCO3 and antibiotics (Penicillin-10,000 units/mL, Streptomycin −10,000 μg/mL, GIBCO, USA). Growth medium (pH 7.4) was prepared by adding 5% heat inactivated FBS (Fetal Bovine Serum, GIBCO, USA) and stored at 4 °C. The medium was changed 10–18 hrs prior to experiment, and cells were confluent at the time of experimentation. Cells were dislodged from flasks by gentle trypsinization containing 0.25% Trypsin. MCF-7 cells were regularly sub-cultured thrice a week in a seeding density of 40,000–50,000 cells/cm^2area. Cell confluency = 70%
The MTT colorimetric viability assay was performed to evaluate the anticancer effect of compounds. 30,000 cells/100 μl of media were seeded per well and allowed to stretch and adhere overnight at 37 °C. Following day media was removed and 100 μl fresh media was added to the grown cells. […] There was one positive and one negative control along with 13 compounds. The results were measured all in triplicate in 45 wells of 96 well plate at each time point. Cytotoxic effect was evaluated using ability of live cells to cleave MTT ((3-[4, 5- dimethylthiazol-2-yl]-2, 5-diphenyl tetrazolium bromide)) (Sigma-Aldrich, St Louis, MO, USA), into formazan crystals. Post 48 hours of treatment, 10 μl of MTT (5 mg/ml in PBS) was added to the cells and incubated for 4 hours in dark at 37 °C. The violet colored crystals formed were then dissolved in 100 μl DMSO solvent (Dimethyl Sulfoxide, Sigma-Aldrich, St. Louis, MO, USA). The colorimetric assay was read by a MultiMode Plate Reader (Bio-Rad) at 595 nm. Percentage of Inhibition of drug was calculated by following formula:
O.D1 O.D2 O.D3 AVG CTRL-TST CTRL-TST/CTRL*100 stdev

COS-7 cells = assay: MTT colorimetric cell viability assay, COS-7; format: cell-based
Experimental: The MTT colorimetric viability assay was performed to evaluate the anticancer effect of compounds. 30,000 cells/100 μl of media were seeded per well and allowed to stretch and adhere overnight at 37 °C. Following day media was removed and 100 μl fresh media was added to the grown cells. Adhered cells were then treated with the compounds 5a-m dissolved in DMSO in triplicates at a standard concentration of 50 μM for 48 hours. There was one positive and one negative control along with 13 compounds. The results were measured all in triplicate in 45 wells of 96 well plate at each time point. Cytotoxic effect was evaluated using ability of live cells to cleave MTT ((3-[4, 5- dimethylthiazol-2-yl]-2, 5-diphenyl tetrazolium bromide)) (Sigma-Aldrich, St Louis, MO, USA), into formazan crystals. Post 48 hours of treatment, 10 μl of MTT (5 mg/ml in PBS) was added to the cells and incubated for 4 hours in dark at 37 °C. The violet colored crystals formed were then dissolved in 100 μl DMSO solvent (Dimethyl Sulfoxide, Sigma-Aldrich, St. Louis, MO, USA). The colorimetric assay was read by a MultiMode Plate Reader (Bio-Rad) at 595 nm. Percentage of Inhibition of drug was calculated by following formula: […]

- EC50 ([1]; Homo sapiens, MCF7, MTT, mean of three experiments): 3.5 µM
SMILES: O=C1Nc2ccccc2C12CCNC2c1ccccc1 (stereo not drawn) [Compound 5l]
- CTRL-TST/CTRL*100 (inhibition) MCF-7 ([1]; concentration row 10): 24.36
- CTRL-TST/CTRL*100 (inhibition) MCF-7 ([1]; concentration row 20): 33.4492
- CTRL-TST/CTRL*100 (inhibition) MCF-7 ([1]; concentration row 30): 48.26
- CTRL-TST/CTRL*100 (inhibition) MCF-7 ([1]; concentration row 40): 62.51
- CTRL-TST/CTRL*100 (inhibition) MCF-7 ([1]; concentration row 50): 66.98
- inhibition at 50 µM ([1]; Homo sapiens, MCF7, 50 μM, 48 hours, MTT, triplicates, read-out: Percentage inhibition MCF-7): 60.96 ± 0.09%
- Inhibition of proliferation of healthy COS-7 cells (COS-7 cells): did not inhibit the proliferation
- inhibition at 50 µM (COS-7 cells; Chlorocebus aethiops, COS-7, 50 μM, MTT, triplicates, read-out: Percentage inhibition COS-7): 15.4 ± 0.18%
